According to publication PMC5707448, “Luminescent platinum(II) complexes with self-assembly and anti-cancer properties: hydrogel, pH dependent emission color and sustained-release properties under physiological conditions” (Chemical Science, 2015):

What was measured:
[1] = test system: nasopharyngeal carcinoma (SUNE1); experiment: MTT cytotoxicity assay, SUNE1; type: cell-based; settings: 72 h treatment
Protocol: (§1) We then tested whether accumulation of platinum(II) complexes in lysosomes was associated with an increase in lysosomal membrane permeability (LMP). […] The cells were then treated with 1a or 2 at different concentrations.[17] […] Induction of LMP is a known cell death mechanism.[19] Therefore, we examined the cytotoxicity of the platinum(II) complexes towards different cancer cells by means of MTT (3-(4,5-dimethyl-2-thiazolyl)-2,5-diphenyltetrazolium bromide) (Table 1) and naphthol blue black (NBB) staining (Table S4 ^†) assays. […]
(§2) MTT assay Cancer cells (cell density = 4000-6000 cells/100µL) were seeded in a 96-well, flat-bottomed microtitre plate in growth medium (100 µL) and incubated at 37 °C under a 5% CO2 atmosphere for 24 h. Different concentrations of complexes were added and the plates were incubated for 72 h. After a total incubation time of 72 h, MTT in PBS solution (5 mg/mL, 10 µL) was added to each well. The plates were incubated at 37 °C under a 5% CO2 atmosphere for another 4 h, followed by adding 100 µL of sodium dodecyl sulfate (SDS, 10%) in diluted hydrochloric acid to each well. After further in dark at 37 °C overnight, the percentage of survival cells were determined with a microtitre plate reader at 590 nm. […]

HeLa = experiment: MTT cytotoxicity assay, HeLa; type: cell-based, human; settings: 72 h treatment
Protocol: as §1, §2

breast cancer (MDA) = experiment: MTT cytotoxicity assay, MDA; type: cell-based; settings: 72 h treatment
Protocol: as §1, §2

[2] = test system: hepatocellular carcinoma cells (HepG2); experiment: MTT cytotoxicity assay, HepG2; type: cell-based; settings: 72 h treatment
Protocol: as §1, §2

[3] = test system: ovarian carcinoma (A2780); experiment: MTT cytotoxicity assay, A2780; type: cell-based; settings: 72 h treatment
Protocol: as §1, §2

HeLa cells [4] = experiment: Naphthol blue black (NBB) staining assay, HeLa; type: cell-based, human; settings: 72 h incubation, read-out: Anti-proliferative activities towards HeLa cells (NBB staining assay)
Protocol: MTT assay Cancer cells (cell density = 4000-6000 cells/100µL) were seeded in a 96-well, flat-bottomed microtitre plate in growth medium (100 µL) and incubated at 37 °C under a 5% CO2 atmosphere for 24 h. Different concentrations of complexes were added and the plates were incubated for 72 h. […]
Naphthol blue black (NBB) staining assay After a total incubation time of 72 h, the medium was removed and a mixture of 50 µL of formaldehyde (3% in PBS) and 50 µL of NBB solution (0.05% NBB, 0.1 M sodium acetate, 9% acetic acid) was added. After further 30 min incubation, the mixture was removed and each well was washed with deionized water for 3 times. The plates were air-dried and 100 µL of NaOH (50 mg/mL) was added to solubilize the NBB-stained cells. The plates were […]
shaken for 1 h. […]

[5] = test system: non-tumorigenic immortalized liver cells (MIHA); experiment: MTT cytotoxicity assay, MIHA; type: cell-based; settings: 72 h treatment
Protocol: as §1, §2

B16 melanoma = experiment: MTT cytotoxicity assay, B16; type: cell-based; settings: 72 h treatment
Protocol: as §1, §2

HeLa cells [6] = experiment: Soft agar colony formation assay; type: cell-based, human; settings: 2 μM, 7 day
Protocol: HeLa cells (0.07 × 106) were seeded with 600 µL cultured medium in the lower chambers of the double-decked Transwell® 24-well plates and incubated at 37 °C under a 5% CO2 atmosphere for 24 h. A uniform scratch was introduced on each well using a […] and the images of the scratches were recorded (0 h).
Berberine@1a-hydrogel and 1a-hydrogel in 100 µL medium was separately introduced to the upper chamber. The upper chambers were detached from the lower chamber after 4 h or 8 h incubation time. The images of the scratches were captured after 24 h incubation time.
Soft agar colony formation assay
HeLa cells (1.5 × 105) were mixed with solvent control or 1a (2 µM) in 2 mL medium with 0.35% soft agar per well in a 6-well plate coated with medium with 0.7% soft agar. 1 mL medium containing solvent control or 1a (2 µM) was added to the soft agar after the soft agar was solidified. The imaging was captured after incubating the plate at 37 °C under a 5% CO2 atmosphere for 7 day.

[7] = test system: primary bladder cancer cells; experiment: MTT assay on primary bladder cancer cells; type: cell-based, human; settings: 72 h incubation, read-out: Cytotoxic IC50, primary bladder cancer cells
Protocol: orifice, stored in pre-cooled Hank’s Balanced Solution (HBSS), and then cut with small scissor into about 2-3 mm3. The specimens were then digested with 0.5% collagenase IV at 37 °C for 15 min, filtered through sterile 100 mesh filter screen. The cells were collected by centrifugation at 700 g for 5 min, and then re-suspended in DMEM culture medium supplemented with penicillin (100 units/ml), streptomycin (100 μg/ml) and fungazone (0.25 μg/ml) at 37 °C in 95% air, 5% CO2, and cultured in […]
The medium was replaced continuously every day. The interstitial cells were removed from the primary bladder cancer cells by trypsinization with 10-times diluted enzyme. The cells were used for drug screening when the confluence reached about 70%-80%. […]
(§3) MTT assay Cancer cells (cell density = 4000-6000 cells/100µL) were seeded in a 96-well, flat-bottomed microtitre plate in growth medium (100 µL) and incubated at 37 °C under a 5% CO2 atmosphere for 24 h. […] After further in dark at 37 °C overnight, the percentage of survival cells were determined with a microtitre plate reader at 590 nm.
(§4) Naphthol blue black (NBB) staining assay After a total incubation time of 72 h, the medium was removed and a mixture of 50 µL of formaldehyde (3% in PBS) and 50 µL of NBB solution (0.05% NBB, 0.1 M sodium acetate, 9% acetic acid) was added. […] The percentage of survival cells was determined with a microtitre plate

HeLa cells [8] = experiment: Lysosomal membrane permeability by acridine orange staining; type: cell-based, human; settings: 5 or 10 μM, 30 min, 37 °C
HeLa cells [9] = experiment: Sustained cytotoxicity in Transwell plates (MTT), HeLa in lower chamber; type: cell-based, human; settings: upper chamber loaded for 1 h, total 72 h
Protocol: The sustained cytotoxicity of 1a-hydrogel towards HeLa cells was tested in double-chambered Transwell® 24-well plates (Fig. 8a). The plate has a semi-permeable membrane to separate the HeLa cells (lower chamber) from direct contact with hydrogel (upper chamber). After treatment of HeLa cells with 1a-hydrogel (100 μM) at different time intervals, the upper chambers were removed and the HeLa cells were further incubated in the absence of the hydrogel. After a total of 72 h, the cell survival percentage was quantified by MTT assay. […] Therefore, an acidic environment can stimulate a faster release of 1a from 1a-hydrogel resulting in a more rapid cytotoxic effect. As the microenvironment of tumor tissues is often acidic compared to that of normal tissues,[20]1a-hydrogel could potentially achieve selective cytotoxicity towards tumor cells under in vivo conditions. […]
orifice, stored in pre-cooled Hank’s Balanced Solution (HBSS), and then cut with small scissor into about 2-3 mm3. The specimens were then digested with 0.5% collagenase IV at 37 °C for 15 min, filtered through sterile 100 mesh filter screen. […]
as §3
as §4, with “plate […]” for “plate”
and 72 h). […] After further in dark at 37 °C overnight, the percentage of survival cells were determined with a microtitre plate reader at 590 nm. […]

[10] = pH 7.4, 1a-hydrogel and cisplatin 100 μM

Compound | IC50 [1] | IC50 (HeLa) | IC50 (breast cancer (MDA)) | IC50 [2] | IC50 [3] | IC50 (HeLa cells [4]) | IC50 [5] | IC50 (B16 melanoma) | Anchorage-independent colony formation (HeLa cells [6]) | IC50 [7] | Lysosomal membrane permeability (red fluorescence of acridine orange) (HeLa cells [8]) | Cell survival (HeLa cells [9]; [10]) | Cell survival (HeLa cells [9]; pH 6.0, 100 μM)
O=S(=O)(O)C(F)(F)F.[C](#[N+]c1ccc2ccccc2c1)[Pt-2]12[c]3ccccc3-c3cccc([n+]31)-c1cc[nH][n+]12 (centres unmarked) [Complex 4] | 7.9 ± 1.3 µM | 8.3 ± 0.9 µM | 7.4 ± 0.5 µM | 6.2 ± 0.6 µM | 5 ± 0.2 µM | 3.52 ± 0.89 µM | 13.5 ± 2.12 µM | 3 ± 0.3 µM |  |  |  |  | 
Cc1cccc(C)c1[N+]#[C][Pt-2]12[c]3ccccc3-c3cccc([n+]31)-c1cc[nH][n+]12.[Cl-] (centres unmarked) [Complex 1a, [Pt(C^N^N^pyr)(C?NR^1)]Cl] | 3.5 ± 0.8 µM | 4.4 ± 0.6 µM | 1.6 ± 0.4 µM | 1.3 ± 0.1 µM | 1.2 ± 0.1 µM | 1.05 ± 0.06 µM | 6.36 ± 0.15 µM | 0.66 ± 0.04 µM | inhibited anchorage-independent colony formation | 6.9 µM | dose-dependent reductions of red fluorescence | ~15% | 
CCCC[N+]#[C][Pt-2]12[c]3ccccc3-c3cccc([n+]31)-c1cc[nH][n+]12.[Cl-] (centres unmarked) [Complex 2] | 4.4 ± 1 µM | 5.1 ± 1.1 µM | 5 ± 0.2 µM | 4 ± 0.8 µM | 3.3 ± 0.2 µM | 2.28 ± 0.18 µM | 8.12 ± 1.27 µM | 0.85 ± 0.07 µM |  |  | dose-dependent reductions of red fluorescence |  | 
COc1ccc([N+]#[C][Pt-2]23[c]4ccccc4-c4cccc([n+]42)-c2cc[nH][n+]23)cc1.O=S(=O)(O)C(F)(F)F (centres unmarked) [Complex 3] | 3.9 ± 0.7 µM | 3.8 ± 0.5 µM | 4.2 ± 1 µM | 2.7 ± 0.2 µM | 2.7 ± 0.1 µM | 1.98 ± 0.21 µM | 9.56 ± 2.15 µM | 2.6 ± 0.2 µM |  |  |  |  | 
Cc1cccc(C)c1[N+]#[C][Pt-2]12[c]3ccccc3-c3cccc([n+]31)-c1cc[nH][n+]12.O=S(=O)(O)C(F)(F)F (centres unmarked) [Complex 1b] | 2.8 ± 0.6 µM | 2.8 ± 0.2 µM | 2.1 ± 0.5 µM | 1.7 ± 0.4 µM | 1.2 ± 0.1 µM | 0.9 ± 0.17 µM | 5.23 ± 0.62 µM | 0.42 ± 0.02 µM |  |  |  |  | 
N.N.[Cl][Pt][Cl] [Cisplatin] |  |  |  |  |  | 4.29 ± 0.36 µM |  |  |  |  |  | ~20% | ~20%
COCCOCCOc1ccc([N+]#[C][Pt-2]23[c]4ccccc4-c4cccc([n+]42)-c2cc[nH][n+]23)cc1.O=S(=O)(O)C(F)(F)F (centres unmarked) [Complex 5] | 12.3 ± 4.2 µM | 14.4 ± 3.5 µM | 8.3 ± 1.6 µM | 9 ± 1.6 µM | 11.7 ± 2.1 µM | 9.47 ± 1.92 µM | 20.2 ± 2.92 µM | 6.2 ± 0.5 µM |  |  |  |  | 
